Results: patent US12446577B2 (priority 2018, dated 2025)

Experiments:
Plasmopara viticola = Plasmopara viticola grapevine leaf disc test; assay type: in vivo
Method: A stock solution of choline pelargonate (29.1% PLA and 40.4% Choline hydroxide, pH 8.82) was made by mixing 14.55 mL PLA with 15.25 mL distilled water and afterwards the addition of 20.2 mL of Choline hydroxide. The choline pelargonate stock solution (42.04%) was diluted in order to create a solution with a final concentration of choline pelargonate equal to 1 mL/L and 10 mL/L. The two choline pelargonate solutions, water as negative control and copper hydroxide (2 g/L) as positive control were used for this test. For each object 4 Petri plates were prepared and each plate contains 5 grapevine leaf discs (see Table 8 below).
Leaf discs preparation: leaf discs (diameter 19 mm) were prepared from grapevine cuttings (variety Pinot Nero Entav 115) using the young leaves. 5 leaf discs were placed in each Petri Plate on autoclaved paper (4 layers), the paper was previously wetted by adding 8.5 mL of sterile water in each plate. The leaf discs were placed on the paper with the abaxial side upward.
Test products application and pathogen inoculation: leaf discs were treated with the test products at 11.30 A.M (i.e. a preventive application) and the leaves were allowed to dry. The products were sprayed with a small hand sprayer; 5 sprays were applied on each plate. The same day at 16.30 a suspension of P. viticola spores at final concentration of 2*10^5 spore/mL was applied (5 hours after test product application) on the leaf discs. The inoculated plates were incubated overnight in the dark at 25° C. The following day, the leaf discs were dried under the laminar flow and then placed back at 25° C. The disease assessment was done 7 days after the artificial inoculation.

Botrytis cinerea = assay: Mycelium growth inhibition on PDA (Example 7); assay type: cell-based; details: 3 days at 25° C; for Average mycelium diameter: n = 4
Method: Strains used for this trial were kept and refreshed on Potato Dextrose Agar (PDA) at 25° C.
To begin, a quantity of test product was directly added in a certain volume of PDA (about 20 mL/petri dish) (Table 11). Plugs of agar (diameter 10 mm) from one week-old cultures were placed at the centre of the PDA plates. Each object was performed in 4 repetitions. The petri dishes were then incubated at 25° C. in the dark. After 3 and 6 days of incubation, the diameter of the colonies was measured in 2 perpendicular directions. The percentage of inhibition was calculated for each product/concentration compare to the untreated.

CCCCCCCCC(=O)[O-].C[N+](C)(C)CCO [Choline pelargonate, choline pelargonate]
disease severity (level of sporulation) (Plasmopara viticola; 1 mL/L, preventive spray, 7 days after the artificial inoculation): 5.3% | disease severity (Plasmopara viticola; 10 mL/L, preventive spray, 7 days after the artificial inoculation): 0% | efficacy against P. viticola (Plasmopara viticola; test repeated a second and a third time (data not shown)): comparable with the reference copper | % efficacy compared to control (Abbott) (Botrytis cinerea; 0.042% a.i. in PDA): 98% | Average mycelium diameter (Botrytis cinerea; 0.042% a.i. in PDA): 0.9 ± 1.8 mm | % efficacy compared to control (Abbott) (Botrytis cinerea; 0.42% a.i. in PDA): 100% | Average mycelium diameter (Botrytis cinerea; 0.42% a.i. in PDA): 0.0 ± 0.0 mm
